This passage reports EC90 results from ChEMBL document CHEMBL3877294, “Discovery of Ruzasvir (MK-8408): A Potent, Pan-Genotype HCV NS5A Inhibitor with Optimized Activity against Common Resistance-Associated Polymorphisms” (J Med Chem, 2017).

Format in all cases: cell-based
In assay [1] the test system is Huh-7. Nature of the assay: Inhibition of HCV genotype-3a NS5A infected in human HuH7 cells by luciferase reporter gene assay. The note with it: Hepatitis C virus subtype 3a.
The test system of assay [2] is Huh-7. Nature of the assay: Inhibition of HCV genotype-4a NS5A infected in human HuH7 cells by luciferase reporter gene assay. Particulars: Hepatitis C virus subtype 4a.
For assay [3], the system named is T1, Nonstructural protein 5A (Hepatitis C virus), Q5L478 [Y93H].
T1 sequence (whole entry): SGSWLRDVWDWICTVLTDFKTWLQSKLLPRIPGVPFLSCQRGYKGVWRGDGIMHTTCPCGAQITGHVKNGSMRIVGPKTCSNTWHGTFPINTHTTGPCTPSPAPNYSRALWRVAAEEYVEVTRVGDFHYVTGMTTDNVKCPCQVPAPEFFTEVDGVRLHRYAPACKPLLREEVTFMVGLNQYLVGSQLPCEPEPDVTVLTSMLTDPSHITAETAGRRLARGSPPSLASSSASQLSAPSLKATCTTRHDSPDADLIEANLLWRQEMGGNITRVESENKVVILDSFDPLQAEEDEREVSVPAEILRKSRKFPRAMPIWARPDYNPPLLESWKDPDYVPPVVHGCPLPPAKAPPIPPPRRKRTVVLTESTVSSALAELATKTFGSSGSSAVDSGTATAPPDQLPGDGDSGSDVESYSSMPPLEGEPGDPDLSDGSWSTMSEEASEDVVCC
Nature of the assay: Inhibition of HCV genotype-1a NS5A Y93H mutant infected in human HuH7 cells by luciferase reporter gene assay. The note with it: Hepatitis C virus subtype 1a; Huh-7.

Assay [4] relates to Nonstructural protein 5A (Hepatitis C virus), Q5L478 [UNDEFINED MUTATION]. Nature of the assay: Inhibition of HCV genotype-1a NS5A L31V mutant infected in human HuH7 cells by luciferase reporter gene assay. The note with it: Hepatitis C virus subtype 1a; Huh-7.
The test system of assay [5] is Huh-7. Nature of the assay: Inhibition of HCV genotype-1a NS5A infected in human HuH7 cells by luciferase reporter gene assay. The note with it: Hepatitis C virus subtype 1a.
In assay [6] the test system is Huh-7. Nature of the assay: Inhibition of HCV genotype-2b NS5A harboring methionine at position 31 infected in human HuH7 cells by luciferase reporter gene assay. Particulars: Hepatitis C virus subtype 2b.

For `COC(=O)N[C@H](C(=O)N1CCC[C@H]1c1ncc(-c2cc(F)c3c(c2)OC(c2ccc(C#N)s2)n2c-3cc3cc(-c4cnc([C@@H]5CCCN5C(=O)[C@@H](NC(=O)OC)C(C)C)[nH]4)ccc32)[nH]1)C(C)C` (some centres undefined), the EC90 with Huh-7 [1] is 13 pM; in the assay on Huh-7 [2], 4 pM; in assay [3], 2.38 nM; in assay [4], 0.087 nM; in the assay on Huh-7 [5], < 2 pM; with Huh-7 [6], 3.4 nM.

For `COCc1ccc(C2Oc3cc(-c4cnc([C@@H]5CCCN5C(=O)[C@@H](NC(=O)OC)C(C)C)[nH]4)cc(F)c3-c3cc4cc(-c5cnc([C@@H]6CCCN6C(=O)[C@@H](NC(=O)OC)C(C)C)[nH]5)ccc4n32)s1` (some centres undefined), the concentration for an effect of 90% (EC90) in the assay with Huh-7 [1] is 16 pM; in the assay on Huh-7 [2], 9 pM; in assay [3] it was 0.22 nM; in assay [4], 0.049 nM; in the assay on Huh-7 [5], 5 pM; in the assay on Huh-7 [6] it was 0.54 nM.

Turning to `COC(=O)N[C@H](C(=O)N1CCC[C@H]1c1ncc(-c2cc(F)c3c(c2)OC(c2ccc(C4CC4(F)F)s2)n2c-3cc3cc(-c4cnc([C@@H]5CCCN5C(=O)[C@@H](NC(=O)OC)C(C)C)[nH]4)ccc32)[nH]1)C(C)C` (some centres undefined), the EC90 in the assay on Huh-7 [1] came out at 7 pM; in the assay with Huh-7 [2], 3 pM; in assay [3], 0.084 nM; in assay [4] it was 0.02 nM; with Huh-7 [5] it was 2 pM; in the assay with Huh-7 [6], 0.43 nM.

As to `CCc1ncc(C2Oc3cc(-c4cnc([C@@H]5CCCN5C(=O)[C@@H](NC(=O)OC)C(C)C)[nH]4)cc(F)c3-c3cc4cc(-c5cnc([C@@H]6CCCN6C(=O)[C@@H](NC(=O)OC)C(C)C)[nH]5)ccc4n32)s1` (some centres undefined), the concentration for an effect of 90% (EC90) with Huh-7 [1] stood at 9 pM; in the assay on Huh-7 [2], 11 pM; in assay [3], 0.14 nM; in assay [4] it was 0.048 nM; in the assay on Huh-7 [5], 4 pM; with Huh-7 [6] it was 0.097 nM.

Regarding `COC(=O)N[C@H](C(=O)N1CCC[C@H]1c1ncc(-c2cc(F)c3c(c2)OC(c2ccc(C(F)(F)F)s2)n2c-3cc3cc(-c4cnc([C@@H]5CCCN5C(=O)[C@@H](NC(=O)OC)C(C)C)[nH]4)ccc32)[nH]1)C(C)C` (some centres undefined), the EC90 in the assay on Huh-7 [1] came to 7 pM; in the assay on Huh-7 [2], 3 pM; in assay [3], 0.31 nM; in assay [4], 0.097 nM; with Huh-7 [5], 3 pM; in the assay with Huh-7 [6], 0.31 nM.

As for `COC(=O)N[C@H](C(=O)N1CCC[C@H]1c1ncc(-c2cc(F)c3c(c2)OC(c2cc4c(s2)CCCC4)n2c-3cc3cc(-c4cnc([C@@H]5CCCN5C(=O)[C@@H](NC(=O)OC)C(C)C)[nH]4)ccc32)[nH]1)C(C)C` (some centres undefined), the concentration for an effect of 90% (EC90) with Huh-7 [1] was 20 pM; in the assay on Huh-7 [2], 8 pM; in assay [3], 0.31 nM; in assay [4] it was 0.027 nM; with Huh-7 [5], 5 pM; in the assay with Huh-7 [6], 0.61 nM.

Take `COC(=O)N[C@H](C(=O)N1CCC[C@H]1c1ncc(-c2cc(F)c3c(c2)OC(c2sccc2C2CC2)n2c-3cc3cc(-c4cnc([C@@H]5CCCN5C(=O)[C@@H](NC(=O)OC)C(C)C)[nH]4)ccc32)[nH]1)C(C)C` (some centres undefined): the EC90 is 4700 pM in the assay with Huh-7 [1]; 320 pM with Huh-7 [2]; 70 nM in assay [3]; 1.74 nM in assay [4]; 12 pM in the assay with Huh-7 [5]; > 33 nM in the assay with Huh-7 [6].

With `CCCc1ncc(C2Oc3cc(-c4cnc([C@@H]5CCCN5C(=O)[C@@H](NC(=O)OC)C(C)C)[nH]4)cc(F)c3-c3cc4cc(-c5cnc([C@@H]6C[C@H]7C[C@H]7N6C(=O)[C@@H](NC(=O)OC)C(C)C)[nH]5)ccc4n32)s1` (some centres undefined), the EC90 with Huh-7 [1] is 9 pM; with Huh-7 [2] it was 12 pM; in assay [3] it was 0.021 nM; in assay [4], 0.013 nM; in the assay on Huh-7 [5], 5 pM; in the assay with Huh-7 [6], 0.14 nM.

For the molecule `COC(=O)N[C@H](C(=O)N1CCC[C@H]1c1ncc(-c2cc(F)c3c(c2)OC(c2cnc(OC)s2)n2c-3cc3cc(-c4cnc([C@@H]5CCCN5C(=O)[C@@H](NC(=O)OC)C(C)C)[nH]4)ccc32)[nH]1)C(C)C` (some centres undefined), the EC90 came out at 7 pM in the assay with Huh-7 [1]; 4 pM with Huh-7 [2]; 0.035 nM in assay [3]; 0.015 nM in assay [4]; 2 pM with Huh-7 [5]; 0.068 nM with Huh-7 [6].
